Assays:
Assay in all cases: relative viability (nuclei count vs DMSO), 5 days (fraction); higher = more cells survive
[1] = tested on: BEN
In short: (§1)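 Relative viability divides the nuclei count in treated wells by that in vehicle wells. Lung cancer cell lines were seeded in 1536-well plates, dosed by pin tool the next day, and fixed and stained after 5 days in one step with final 0.05% Triton X-100, 1% formaldehyde and 1 ug/ml Hoechst. Dosing was a single drug or a fixed anchor-drug dose plus five library-drug doses (not always all listed) in √10 steps, and values are medians of duplicate plates imaged at 4×.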

[2] = tested on: CAL-12T
In short: as §1

[3] = tested on: EKVX
In short: as §1

[4] = tested on: HCC-366
In short: as §1

[5] = tested on: HCC-44
In short: as §1

[6] = tested on: LOU-NH91
In short: as §1

[7] = tested on: LU99A
In short: as §1

[8] = tested on: NCI-H1355
In short: as §1

[9] = tested on: NCI-H1395
In short: as §1

[10] = tested on: NCI-H1437
In short: as §1

[11] = tested on: NCI-H1563
In short: as §1

[12] = tested on: NCI-H1651
In short: as §1

[13] = tested on: NCI-H1734
In short: as §1

[14] = tested on: NCI-H1755
In short: as §1

[15] = tested on: NCI-H1975
In short: as §1

[16] = tested on: NCI-H2023
In short: as §1

[17] = tested on: NCI-H2085
In short: as §1

[18] = tested on: NCI-H358
In short: as §1

[19] = tested on: NCI-H441
In short: as §1

[20] = tested on: NCI-H460
In short: as §1

[21] = tested on: NCI-H838
In short: as §1

In the case of `O=C(O)c1ccc(-c2c[nH]c3ncc(-c4ccccc4)cc23)cc1C1CCCC1` + Cc1nc(NC(=O)N2CCC[C@H]2C(N)=O)sc1-c1ccnc(C(C)(C)C(F)(F)F)c1 [Alpelisib] (partner 2 µM), the relative viability ([1]; first compound 0.04 µM) is reported as 1.28, the relative viability ([1]; first compound 0.1265 µM) is reported as 1.07 and the relative viability ([1]; first compound 0.4 µM) is reported as 1.01. It also gave a relative viability ([1]; first compound 1.265 µM) of 0.913, a relative viability ([2]; first compound 0.04 µM) of 1.17 and a relative viability ([2]; first compound 0.1265 µM) of 1.45. The relative viability ([2]; first compound 0.4 µM) was 1.2, the relative viability ([2]; first compound 1.265 µM) was 1.11 and the relative viability ([3]; first compound 0.04 µM) was 0.984. It also gave a relative viability ([3]; first compound 0.1265 µM) of 0.966, a relative viability ([3]; first compound 0.4 µM) of 0.911 and a relative viability ([3]; first compound 1.265 µM) of 0.812. For the same molecule, the relative viability ([4]; first compound 0.04 µM) was 0.443, the relative viability ([4]; first compound 0.1265 µM) was 0.721 and the relative viability ([4]; first compound 0.4 µM) was 0.653. The relative viability ([4]; first compound 1.265 µM) was 0.32, the relative viability ([5]; first compound 0.04 µM) was 0.889 and the relative viability ([5]; first compound 0.1265 µM) was 0.813. For the same molecule, the relative viability ([5]; first compound 0.4 µM) was 0.848, the relative viability ([5]; first compound 1.265 µM) was 0.477 and the relative viability ([6]; first compound 0.04 µM) was 0.756. It also gave a relative viability ([6]; first compound 0.1265 µM) of 0.803, a relative viability ([6]; first compound 0.4 µM) of 0.68 and a relative viability ([6]; first compound 1.265 µM) of 0.608. It also gave a relative viability ([7]; first compound 0.04 µM) of 0.597, a relative viability ([7]; first compound 0.1265 µM) of 0.615 and a relative viability ([7]; first compound 0.4 µM) of 0.485. It also gave a relative viability ([7]; first compound 1.265 µM) of 0.425, a relative viability ([8]; first compound 0.04 µM) of 0.795 and a relative viability ([8]; first compound 0.1265 µM) of 0.804. It also gave a relative viability ([8]; first compound 0.4 µM) of 0.819, a relative viability ([8]; first compound 1.265 µM) of 0.621 and a relative viability ([9]; first compound 0.04 µM) of 1.35. It also gave a relative viability ([9]; first compound 0.1265 µM) of 1.01, a relative viability ([9]; first compound 0.4 µM) of 1.1 and a relative viability ([9]; first compound 1.265 µM) of 0.769. For the same molecule, the relative viability ([10]; first compound 0.04 µM) was 0.998, the relative viability ([10]; first compound 0.1265 µM) was 0.951 and the relative viability ([10]; first compound 0.4 µM) was 0.914. The relative viability ([10]; first compound 1.265 µM) was 0.882, the relative viability ([11]; first compound 0.04 µM) was 1.01 and the relative viability ([11]; first compound 0.1265 µM) was 0.961. For the same molecule, the relative viability ([11]; first compound 0.4 µM) was 0.891, the relative viability ([11]; first compound 1.265 µM) was 0.991 and the relative viability ([12]; first compound 0.04 µM) was 0.977. The relative viability ([12]; first compound 0.1265 µM) was 1.02, the relative viability ([12]; first compound 0.4 µM) was 0.613 and the relative viability ([12]; first compound 1.265 µM) was 0.713. For the same molecule, the relative viability ([13]; first compound 0.04 µM) was 0.74, the relative viability ([13]; first compound 0.1265 µM) was 0.683 and the relative viability ([13]; first compound 0.4 µM) was 0.598. The relative viability ([13]; first compound 1.265 µM) was 0.664, the relative viability ([14]; first compound 0.04 µM) was 0.952 and the relative viability ([14]; first compound 0.1265 µM) was 1.02. For the same molecule, the relative viability ([14]; first compound 0.4 µM) was 0.98, the relative viability ([14]; first compound 1.265 µM) was 0.923 and the relative viability ([15]; first compound 0.04 µM) was 0.633. For the same molecule, the relative viability ([15]; first compound 0.1265 µM) was 0.817, the relative viability ([15]; first compound 0.4 µM) was 0.652 and the relative viability ([15]; first compound 1.265 µM) was 0.578. It also gave a relative viability ([16]; first compound 0.04 µM) of 0.629, a relative viability ([16]; first compound 0.1265 µM) of 0.65 and a relative viability ([16]; first compound 0.4 µM) of 0.583. It also gave a relative viability ([16]; first compound 1.265 µM) of 0.529, a relative viability ([17]; first compound 0.04 µM) of 1.03 and a relative viability ([17]; first compound 0.1265 µM) of 0.98. For the same molecule, the relative viability ([17]; first compound 0.4 µM) was 0.944, the relative viability ([17]; first compound 1.265 µM) was 0.741 and the relative viability ([18]; first compound 0.04 µM) was 0.767. It also gave a relative viability ([18]; first compound 0.1265 µM) of 0.904, a relative viability ([18]; first compound 0.4 µM) of 0.708 and a relative viability ([18]; first compound 1.265 µM) of 0.381. For the same molecule, the relative viability ([19]; first compound 0.04 µM) was 0.707, the relative viability ([19]; first compound 0.1265 µM) was 0.692 and the relative viability ([19]; first compound 0.4 µM) was 0.759. The relative viability ([19]; first compound 1.265 µM) was 0.382, the relative viability ([20]; first compound 0.04 µM) was 0.518 and the relative viability ([20]; first compound 0.1265 µM) was 0.607. It also gave a relative viability ([20]; first compound 0.4 µM) of 0.483, a relative viability ([20]; first compound 1.265 µM) of 0.416 and a relative viability ([21]; first compound 0.04 µM) of 1.08. For the same molecule, the relative viability ([21]; first compound 0.1265 µM) was 1.13, the relative viability ([21]; first compound 0.4 µM) was 1.11 and the relative viability ([21]; first compound 1.265 µM) was 1.02.
